Values after ≈ are worked out from the molar mass of the structure shown. Structures can show the parent of a compound that is named as a salt. Where two headings read alike, the source gives them in different places.
Legend:
[1] = in vitro; conditions: both, human
[2] = Metabolic stability in human liver microsomes; conditions: both; for remaining at 40 min, 2 µM: Mean of 2, 40 min; for remaining at 25 min, 2 µM: Mean of 2, 25 min; for k el at 2 µM: pH 7.4, kel; for half-life at 2 µM: pH 7.4, t1/2, Table S6, 1st batch
[3] = Kinetic solubility in phosphate-buffered saline, pH 7.4; type: physicochemical; conditions: 25 °C, pH 7.4, aqueous buffer, kinetic from dmso stock; for solubility at 2 h: PBS solubility
Protocol: Analysis of Aqueous Solubility […]
compound (Ondansetron) were assessed for kinetic solubility in phosphate -buffered saline, pH 7.4.
Phosphate buffered saline, pH 7.4 (Sigma -Aldrich, USA; Cat #P3813) […]
MultiScreen HTS 96 Well Filter Plates (Millipore, Ireland; Cat # MSSLBPC10) […]
Matrix Multichannel Electronic Pipette 2-125 μL, 5-250 μL, 15-1250 μL (Thermo Scientific, USA; […]
Vacuum pump (Millipore, USA; Model # XX5500000)
The measurements were performed using SpectraMax Plus reader in UV -Vis mode. Acquisition and […]
The measurements were performed using SpectraMax Paradigm reader in UV-Vis mode.
Acquisition and analysis of the data were performed using SoftMax Pro v.5.4 (Molecular Devices) […]
Kinetic solubility assay was performed according to the Enamine’s aqueous solubility SOP. Briefly, using a 20 mM stock solution of the compound in 100% DMSO dilutions were prepared to a theoretical concentration of 400 μM in duplicates in phosphate-buffered saline pH 7.4 […]
compound dilutions in PBS were further allowed to equilibrate at 25 °C on a thermostatic shaker for two hours and then filtered through HTS filter plates using a vacuum manifold. The filtrates of test compounds were diluted 2-fold with acetonitrile with 2% DMSO before measuring.
In parallel, compound dilutions in 50% acetonitrile/PBS were prepared to theoretical concentrations […]
calibration curves. Ondansetron was used as reference compound to control proper assay performance. 200 μl of each sample was transferred to 96-well plate and measured in 230-550 nm range with 5 nm step. The effective range of this assay is approximately 2-400 μM and the […]
The concentrations of compounds in PBS filtrate are calculated using a dedicated Microsoft Excel calculation script. Proper absorbance wavelengths for calculations are selected for each compound manually based on absorbance maximums (absolute absorbance unit values for the minimum and maximum concentration points within the 0 – 3 OD range). Each final dataset is visually evaluated by the operator, and goodness of fit (R2) is calculated for each calibration curve. […]
samples were diluted 2-fold with acetonitrile containing internal standard and were analyzed using the HPLC system coupled with a tandem mass spectrometer. The effective range of this assay is […]

[4] = test system: Aspergillus niger (strain VURV-F 822); assay: Antifungal disk diffusion method; type: cell-based
Protocol: Antifungal activity of the synthetic compounds using disk diffusion methods The compounds were tested for plant pathogens Aspergillus niger (strain VURV-F 822), which was received from Culture collection of microorganisms of Crop Research Institute (Prague, Czech […]
The synthetic compounds' antifungal activity was evaluated using a disk diffusion assay for testing filamentous fungi (CLSI M51-A) and broth microdilution antifungal susceptibility testing (EUCAST E.DEF 7.3.1; CLSI M38-A2)
[CLSI M51-A. Method for Antifungal Disk Diffusion Susceptibility Testing of Nondermatophyte Filamentous Fungi; Approved Guideline.CLSI document M51-A. Wayne, PA:
Clinical and Laboratory Standards Institute; 2010. This method is standardized for Altenaria, Aspergillus, Bipolaris, Fusarium, order Mucorales, etc.]
[CLSI M38-A2. 2008. Reference method for broth dilution antifungal susceptibility testing of filamentous fungi, 2nd ed Approved standard M38 -A2 Clinical and Laboratory Standards Institute, […]
Antifungal disk diffusion method
The solutions of fungicides and their analogues were diluted in dimethyl sulfoxide (DMSO) to […]
mg/mL for each test component. Sterile paper disks (ASPECT, Ukraine) were soaked with 10 μl of a solution of the appropriate fungicide from the highest concentration to the lowest.
The fungal strains were cultured on Petri dishes with Saburo dextrose agar (Condalab, Spain) and incubated at 25 °C for 5 days. Sterile Dulbecco's phosphate -buffered saline (DPBS) with 0,1 % Tween 20 was used to cover colonies of fungus for obtained conidia l suspension. Suspension of conidia was adjusted to inoculums 2×10^5 conidia/mL by sterile DPBS.
For antifungal disk diffusion test we used square Petri dishes (FALCON A Corning Brand, USA). The conidial suspension (0.5 mL) was added to Petri dishes with Saburo dextrose agar. The suspension was evenly distributed over the surface of the nutrient medium with a glass spatula.
After the surface of the inoculated medium was dry, the disks with different concentrations of testing compounds were added to the Petri dishes. Each compound was tested in triplicate at different concentrations. Growth control was a disk with 10 μl of DMSO, which was used for test […]
Petri dishes incubated at 25 °C for 72 h. The test compounds at known concentrati on into contact with an inoculated medium then exert a growth-inhibiting effect then a clear zone (the zone of […]
inhibition) appears around the test product. The diameter of a clear zone around the well is […]
If the fungal strain is susceptible to the antifungal agent, then a zone of inhibition appears on the agar plate. If it is resistant to the test compound, then no zone is evident. The size of the zone of inhibition is usually related to the level of antifungal activity present in the compound – a larger […]
The growth rate of all strains for each concentration of test compounds was determined visually and compared with the growth of control.
Broth microdilution antifungal susceptibility testing
A 96-well CELLSTAR plate (sterile, flat-bottomed, polystyrene, transparent) was used to determine MIC by broth microdilution method. Also, dabble straight RPMI-1640 medium with 2% glucose (2x RPMI 2%G) was used for this method. Spore suspension for plate inoculation was prepared according to the method described above for the disc diffusion method.
The each well in the plate contained 49 μl of medium (2x RPMI 2%G), 50 μl of inoculum (prepared in DPBS) and 1 μl of the stock solution of the test substance. Positive control wells contained 50 μl medium and 50 μl inoculum, and sterile control wells contained 50 μl medium and […]
To determine the MIC by the microdilution method, a series of stock solutions of fungicides and their analogues in DMSO with the following concentrations were prepared: 3.2 mg/mL, 1.6 mg/mL, […]
1 μl of the stock solutions of the test substances were added to each well to obtain the following […]
Immediately after adding all the components to the plates, the optical density was measured at […]

[5] = physchem
[6] = Table S5, injection 1, octanol/PBS pH 7.4
[7] = Table S5, injection 2, octanol/PBS pH 7.4
[8] = Table S5, injection 3, octanol/PBS pH 7.4
[9] = liver microsomes (pooled), pH 7.4, % Remaining without cofactor, no NADPH cofactor, Table S6, 1st batch
[10] = liver microsomes (pooled), pH 7.4, % Remaining, Mean of 2, 7 min, Table S6, 1st batch
[11] = liver microsomes (pooled), pH 7.4, % Remaining, Mean of 2, 15 min, Table S6, 1st batch
[12] = liver microsomes (pooled), pH 7.4, % Remaining, Table S6, 1st batch
[13] = liver microsomes (pooled), Table S6, 1st batch

solubility kinetic at 2 h [3]	D [6]	D [7]	D [8]	solubility at 2 h ([3]; pH 7.4, Incubation 1)	solubility at 2 h ([3]; pH 7.4, Incubation 2)	solubility at 2 h ([3]; pH 7.4, Mean)	logD at 1 h ([5]; pH 7.4, LogD, pH 7.4)	remaining at 40 min, 2 µM [2, 9]	remaining at […], 2 µM [2, 10]	remaining at […], 2 µM [2, 11]	remaining at 25 min, 2 µM [2, 12]	remaining at 40 min, 2 µM [2, 12]	k el at 2 µM [2, 13]	half-life at 2 µM ([2]; liver microsomes (pooled))	Compound	also measured
															CC(C)NCC(O)COc1cccc2ccccc12 (racemic) [Propranolol, (+,-) Propranolol hydrochloride]	remaining at 40 min, 2 µM ([1]; microsomes, pH 7.4, % Remaining, Mean of 2): 68%; half-life at 2 µM ([1]; microsomes, pH 7.4, t1/2): 1.18 h; half-life at 2 µM ([1]; s9, pH 7.4, t1/2): ~5.93 h; remaining at 40 min, 2 µM ([2]; liver microsomes (pooled), pH 7.4, % Remaining, Table S7, 2st batch): 58%
14 µM (≈ 7.04 µg/mL)	9.55E+03	1.25E+04	1.36E+04	15 µM (≈ 7.54 µg/mL)	14 µM (≈ 7.04 µg/mL)	14 µM (≈ 7.04 µg/mL)	3.98	109%	81%	81%	83%	76%	8.33e-05 s⁻¹	2.25 h	Cc1nc2c([nH]1)CCN(C(=O)c1ccc(NC(=O)C3CC4CC3(c3ccccc3)C4)cc1)c1ccccc1-2 (stereo not shown) [Compound 26]	microsomal CLint at 2 μM ([2]; human liver microsomes (pooled), pH 7.4): 12 µL/min/mg
18 µM (≈ 12.6 µg/mL)	7.79E+03	7.46E+03	8.20E+03	18 µM (≈ 12.6 µg/mL)	19 µM (≈ 13.3 µg/mL)	18 µM (≈ 12.6 µg/mL)	3.89	106%	47%	20%	9%	5%	0.00128 s⁻¹	0.15 h	O=C(NC1CCN(CCCCC2(C(=O)NCC(F)(F)F)c3ccccc3-c3ccccc32)CC1)C1CC2CC1(c1ccc(C(F)(F)F)cc1)C2 (stereo not shown) [Compound 27]	logD at 1 h ([5]; pH 7.4, log D (7.4)): 3.9; microsomal CLint at 2 µM ([2]; liver microsomes (pooled), pH 7.4): 186 µL/min/mg

Compound	solubility kinetic at 2 h [3]	D [6]	D [7]	D [8]	solubility at 2 h ([3]; pH 7.4, Incubation 1)	solubility at 2 h ([3]; pH 7.4, Incubation 2)	solubility at 2 h ([3]; pH 7.4, Mean)	logD at 1 h ([5]; pH 7.4, LogD, pH 7.4)	remaining at 40 min, 2 µM [2, 9]	remaining at […], 2 µM [2, 10]	remaining at […], 2 µM [2, 11]	remaining at 25 min, 2 µM [2, 12]	remaining at 40 min, 2 µM [2, 12]	k el at 2 µM [2, 13]	half-life at 2 µM ([2]; liver microsomes (pooled))	also measured
O=C(Nc1ccccc1-c1ccc(Cl)cc1)c1cccnc1Cl [Boscalid, boscalid]	11 µM (≈ 3.78 µg/mL)	3.62E+03	2.86E+03	4.07E+03												zone of inhibition at 4 µg/mL ([4]; Concentration 0.004 mg/mL, 0 = absence of antifungal activity, Boscalid, Fluxapyroxad, Bixafen marked st, read-out: Diameter of inhibition zone): 7.5 ± 1 mm; zone of inhibition at 8 µg/mL ([4]; Concentration 0.008 mg/mL, 0 = absence of antifungal activity, read-out: Diameter of inhibition zone): 8.5 ± 1 mm; zone of inhibition at 16 µg/mL ([4]; Concentration 0.016 mg/mL, 0 = absence of antifungal activity, read-out: Diameter of inhibition zone): 10.5 ± 1.5 mm; zone of inhibition at 30 µg/mL ([4]; Concentration 0.03 mg/mL, 0 = absence of antifungal activity, (±)-29 marked st, read-out: Diameter of inhibition zone): 13.5 ± 2 mm; zone of inhibition at 60 µg/mL ([4]; Concentration 0.06 mg/mL, 0 = absence of antifungal activity, Fluxapyroxad, Bixafen, (±)-29 marked st, read-out: Diameter of inhibition zone): 17.8 ± 2.25 mm; zone of inhibition at 120 µg/mL ([4]; Concentration 0.12 mg/mL, (±)-28 marked st (static growth), read-out: Diameter of inhibition zone): 21.2 ± 2.25 mm; zone of inhibition at 250 µg/mL ([4]; Concentration 0.25 mg/mL, (±)-28 marked st (static growth, secondary growth of mycelium), read-out: Diameter of inhibition zone): 20.2 ± 1 mm; zone of inhibition at 500 µg/mL ([4]; Concentration 0.5 mg/mL, 10 μl per disk, read-out: Diameter of inhibition zone): 26 ± 2.5 mm; zone of inhibition at 1000 µg/mL ([4]; Concentration 1 mg/mL, 10 μl per disk, read-out: Diameter of inhibition zone): 29 ± 1.5 mm; zone of inhibition at 2000 µg/mL ([4]; Concentration 2 mg/mL, 10 μl per disk, read-out: Diameter of inhibition zone): 34.2 ± 0.75 mm; MIC ([4]; disk diffusion, small zones of inhibition with secondary mycelial growth, read-out: minimum inhibitory concentration): 4 µg/mL (≈ 11.7 µM)
